{"source": "patent US9974782B2", "about": "“Phosphodiesterase inhibitors and uses thereof” (THE TRUSTEES OF COLUMBIA UNIVERSITY IN THE CITY OF NEW YORK, priority 2008, dated 2018)", "key": {"APP/PS1 mice [1]": {"test_system": "APP/PS1 mice", "test": "Radial-arm water maze (spatial working memory)", "format": "in vivo, mouse", "conditions": "for minimum time needed for a positive effect on spatial working memory: 3 mg/kg", "text": "Next, the effect of treatment with sildenafil was examined on spatial working memory, a type of short-term memory that can be studied with the radial-arm water maze test. […] Mice were required to learn and memorize the location of a hidden platform in one of the arms of a maze with respect to spatial cues. […] However, daily injections of sildenafil for 3 weeks immediately after the 4th acquisition trial ameliorated the behavioural performance of APP/PS1 mice (FIG. 2B).\nThe effects of one course of 3-week treatment with sildenafil on spatial working memory were next tested using the radial-arm water-maze task. There was a difference between the number of errors made by vehicle-treated APP/PS1 and WT mice (FIG. 3B)^A12. Administration of sildenafil for 3 weeks, 9-12 weeks prior to the testing, reduced the gap between the two groups without affecting performance of the WT animals (FIG. 3B).\nThree-month-old APP/PS1 and WT mice were separated into 4 groups: APP/PS1 mice treated with vehicle, APP/PS1 mice treated with PDE inhibitor, WT mice treated with vehicle, and WT mice treated with PDE inhibitor. […] In the remaining experiments, sildenafil was injected via i.p. The drug was administered either acutely or for 1 course of 3 week treatment. For assessment of the short-term effects of sildenafil, the drug was given at a concentration of 3 mg/kg immediately after the training. This dose yields concentrations of ˜2.5 μM cGMP in the hippocampus^A53. For assessment of long-term effects, sildenafil was given daily by i.p. injection at a concentration of 3 mg/kg for 3 weeks and then treatment was stopped for 9-12 weeks prior to behavioral testing. Contextual and cued fear conditioning was performed for 3 days. Radial-arm water-maze (RAWM) was performed for 3 weeks. Then, the animals were sacrificed for electrophysiological recordings. To decide the time of administration of sildenafil in the acute experiments, a series of studies was performed in which the inhibitor was injected i.p. at 5 min before the electric shock or at 5 min before the first acquisition trial with the radial arm water maze. […] Thus, all the behavioral experiments on the acute effects of sildenafil reported in the result section were performed with injection after the training.\nThis is a type of short-term memory that can be studied with the RAWM test^12. Briefly, the RAWM consisted of a white tank (120 cm diameter) filled with water (24-25° C.) and made opaque by the addition of non-toxic white paint. Within the tank walls were positioned so as to produce six arms, radiating from a central area. Spatial cues were presented on the walls of the testing room. At the end of one of the arms was positioned a clear 10 cm submerged (1.5 cm) platform that remained in the same location for every trial in one day, but was moved about randomly from day to day. On each trial the mouse started the task from a different randomly chosen arm. […] Each trial lasted 1 min and errors were counted each time the mouse entered the wrong arm or needed more than 20 sec to reach the platform. After each error the mouse was pulled back to the start arm for that trial. After 4 consecutive acquisition trials, the mouse was placed in its home cage for 30 min, then returned to the maze and administered a 5th retention trial. Testing was considered completed as the WT mice made the same number of errors at the 4th and 5th trial. The scores for each mouse on the last three days of testing were averaged and used for statistical analysis."}, "APP/PS1 mice [2]": {"test_system": "APP/PS1 mice", "test": "Contextual and cued fear conditioning", "format": "in vivo, mouse", "conditions": "for effect on contextual fear memory in words: APP/PS1 (transgenic) mice", "procedure": "Given that sildenafil reversed LTP deficits in 3-month-old APP/PS1, it was then tested whether the inhibitor reversed the cognitive defects in these animals. As reported above sildenafil offers the advantage of crossing the BBB and therefore it can be easily utilized in behavioural experiments. Three-month-old mice were divided into 4 groups: APP/PS1 with sildenafil, APP/PS1 with vehicle, WT with sildenafil and WT with vehicle. Sildenafil and vehicle control solutions were administered i.p. at a concentration of 3 mg/kg. This concentration was chosen based on previous studies showing that these amounts of sildenafil raise hippocampal cGMP levels and improve memory in aged rats^A6 and mice^A7 independent of vascular effects^A6. The effects of acute administration of sildenafil was first examined on fear-conditioning learning, a type of learning that is impaired in several AD mouse models^A14 and depends on hippocampus and amygdala. The hippocampus is indispensable for contextual fear conditioning^A15, a form of associative learning in which mice must associate a neutral stimulus with an aversive one. Mice were trained to associate neutral stimuli with an aversive one. They were placed in a new context (fear conditioning box), exposed to a white noise cue (CS) paired with a mild foot shock (US), and injected with sildenafil immediately after the training. Fear learning was assessed twenty-four hours later by measuring freezing behaviour—the absence of all movement except for that necessitated by breathing—in response to representation of the context or of the auditory cue within a completely different context. No difference was found in the freezing behaviour among the four groups of mice before the training phase (FIG. 2A). Twenty-four hours later, a decrease in the freezing behaviour of vehicle-treated APP/PS1 mice compared with that of vehicle-treated WT littermates in the analysis of the contextual learning was observed (FIG. 2A). […] Fear conditioning, a hippocampus-independent task A^15, was next tested and no difference in freezing among the 4 groups was found, as APP/PS1 mice are known to have a selective hippocampus-dependent impairment in associative learning^A14.\nSildenafil was tested to determine whether a brief course of treatment can provide long term benefits. The PDE5 inhibitor was examined to see if it maintains its protective effect against synaptic dysfunction and memory loss. In these experiments, both APP/PS1 and WT mice of 3 months of age were injected intraperitoneally with 3 mg/kg/day sildenafil for 3 weeks, then the treatment was stopped for 9-12 weeks prior to testing. The mice were next subjected to training for contextual learning. […] There were no differences between the 4 groups in the cued conditioning test.\nThree-month-old APP/PS1 and WT mice were separated into 4 groups: APP/PS1 mice treated with vehicle, APP/PS1 mice treated with PDE inhibitor, WT mice treated with vehicle, and WT mice treated with PDE inhibitor. […] In the remaining experiments, sildenafil was injected via i.p. The drug was administered either acutely or for 1 course of 3 week treatment. For assessment of the short-term effects of sildenafil, the drug was given at a concentration of 3 mg/kg immediately after the training. This dose yields concentrations of ˜2.5 μM cGMP in the hippocampus^A53. For assessment of long-term effects, sildenafil was given daily by i.p. injection at a concentration of 3 mg/kg for 3 weeks and then treatment was stopped for 9-12 weeks prior to behavioral testing. Contextual and cued fear conditioning was performed for 3 days. Radial-arm water-maze (RAWM) was performed for 3 weeks. Then, the animals were sacrificed for electrophysiological recordings. To decide the time of administration of sildenafil in the acute experiments, a series of studies was performed in which the inhibitor was injected i.p. at 5 min before the electric shock or at 5 min before the first acquisition trial with the radial arm water maze. […]"}, "[3]": {"conditions": "treated at 3 months, tested at 6-8 months"}, "[4]": {"conditions": "3 month-old APP/PS1, 3 mg/Kg i.p."}, "[5]": {"conditions": "APP/PS1, 3 mg/Kg i.p. for 3 weeks at 3 months, tested 9-12 weeks later"}, "[6]": {"conditions": "WT, 3 mg/Kg i.p. for 3 weeks at 3 months, tested 9-12 weeks later"}, "[7]": {"conditions": "3 month-old WT, sildenafil 3 mg/Kg or tadalafil 1 mg/Kg i.p."}}}
{"smiles": "CCCc1nn(C)c2c(=O)[nH]c(-c3cc(S(=O)(=O)N4CCN(C)CC4)ccc3OCC)nc12", "note": "[sildenafil, 5-[2-ethoxy-5-(4-methyl-1-piperazinylsulphonyl)phenyl]-1-methyl-3-n-propyl-1,6-dihydro-7H-pyrazolo[4,3-d]pyrimidin-7-one]", "values": [{"measurement": "minimum time needed for a positive effect on spatial working memory", "setting": "APP/PS1 mice [1]; [3]", "value": 2, "unit": "weeks"}, {"measurement": "minimum time needed for a positive effect on spatial working memory", "setting": "APP/PS1 mice [1]; 3-month-old APP/PS1", "value": 2, "unit": "weeks"}, {"measurement": "minimum concentration needed to improve spatial working memory", "setting": "APP/PS1 mice [1]; 3-month-old APP/PS1, for 3 weeks", "value": 3, "unit": "mg/kg"}, {"measurement": "RAWM errors, recall trial R", "setting": "APP/PS1 mice [1]; [4]", "value": "3.57±0.31", "unit": "errors"}, {"measurement": "RAWM errors, trial A1", "setting": "APP/PS1 mice [1]; [4]", "value": "5.87±0.22", "unit": "errors"}, {"measurement": "RAWM errors, trial A4", "setting": "APP/PS1 mice [1]; [4]", "value": "3.39±0.39", "unit": "errors"}, {"measurement": "RAWM errors, recall trial R", "setting": "APP/PS1 mice [1]; 3 month-old WT, 3 mg/Kg i.p.", "value": "1.9±0.35", "unit": "errors"}, {"measurement": "RAWM errors, trial A1", "setting": "APP/PS1 mice [1]; 3 month-old WT, 3 mg/Kg i.p.", "value": "5.5±0.23", "unit": "errors"}, {"measurement": "RAWM errors, trial A4", "setting": "APP/PS1 mice [1]; 3 month-old WT, 3 mg/Kg i.p.", "value": "1.5±0.21", "unit": "errors"}, {"measurement": "RAWM errors, recall trial R", "setting": "APP/PS1 mice [1]; [5]", "value": "3±0.75", "unit": "errors"}, {"measurement": "RAWM errors, trial A1", "setting": "APP/PS1 mice [1]; [5]", "value": "6.16±0.39", "unit": "errors"}, {"measurement": "RAWM errors, trial A2", "setting": "APP/PS1 mice [1]; [5]", "value": "4.16±0.53", "unit": "errors"}, {"measurement": "RAWM errors, trial A3", "setting": "APP/PS1 mice [1]; [5]", "value": "3.5±0.41", "unit": "errors"}, {"measurement": "RAWM errors, trial A4", "setting": "APP/PS1 mice [1]; [5]", "value": "2.83±0.61", "unit": "errors"}, {"measurement": "RAWM errors in the retention trial", "setting": "APP/PS1 mice [1]; APP/PS1, injected i.p. 5 min before the first acquisition trial", "value": "~5", "unit": "errors"}, {"measurement": "RAWM errors, recall trial R", "setting": "APP/PS1 mice [1]; [6]", "value": "2.33±0.36", "unit": "errors"}, {"measurement": "RAWM errors, trial A1", "setting": "APP/PS1 mice [1]; [6]", "value": "6±0.29", "unit": "errors"}, {"measurement": "RAWM errors, trial A2", "setting": "APP/PS1 mice [1]; [6]", "value": "3.22±0.56", "unit": "errors"}, {"measurement": "RAWM errors, trial A3", "setting": "APP/PS1 mice [1]; [6]", "value": "2.5±0.36", "unit": "errors"}, {"measurement": "RAWM errors, trial A4", "setting": "APP/PS1 mice [1]; [6]", "value": "1.83±0.16", "unit": "errors"}, {"measurement": "minimum concentration needed to improve spatial working memory", "setting": "APP/PS1 mice [1]; [3]", "value": 3, "unit": "mg/kg"}, {"measurement": "minimum time needed for a positive effect on contextual fear memory", "setting": "APP/PS1 mice [2]; 3 mg/kg, treated at 3 months, tested at 6-8 months", "value": 2, "unit": "weeks"}, {"measurement": "minimum concentration needed to improve contextual fear memory", "setting": "APP/PS1 mice [2]; 3-month-old APP/PS1, acute", "value": 3, "unit": "mg/kg"}, {"measurement": "contextual freezing time as % of vehicle-treated WT mice", "setting": "APP/PS1 mice [2]; 3 month-old APP/PS1, sildenafil 3 mg/Kg i.p. after training, 24 hrs", "value": "about 87%"}, {"measurement": "contextual freezing time", "setting": "APP/PS1 mice [2]; 3 month-old APP/PS1, sildenafil 3 mg/Kg or tadalafil 1 mg/Kg i.p., 24 hrs after training", "value": "28.95±3.94", "unit": "%"}, {"measurement": "contextual freezing as % of vehicle-treated WT mice", "setting": "APP/PS1 mice [2]; [7]", "value": "about 89%"}, {"measurement": "contextual freezing time", "setting": "APP/PS1 mice [2]; [7]", "value": "30.1±3.11", "unit": "%"}, {"measurement": "effect on cued conditioning in words", "setting": "APP/PS1 mice [2]; 3 months old APP/PS1 and WT, 3 mg/kg", "value": "do not affect freezing during cued conditioning"}, {"measurement": "effect on contextual fear memory in words", "setting": "APP/PS1 mice [2]", "value": "complete"}, {"measurement": "contextual freezing as % of vehicle-treated WT mice", "setting": "APP/PS1 mice [2]; [5]", "value": "~97", "unit": "%"}, {"measurement": "contextual freezing time", "setting": "APP/PS1 mice [2]; [5]", "value": "30.32±1.98", "unit": "%"}, {"measurement": "freezing time as % of vehicle-treated APP/PS1 mice", "setting": "APP/PS1 mice [2]; APP/PS1, injected i.p. 5 min before the electric shock", "value": "~90", "unit": "%"}, {"measurement": "contextual freezing as % of vehicle-treated WT mice", "setting": "APP/PS1 mice [2]; [6]", "value": "~104", "unit": "%"}, {"measurement": "contextual freezing time", "setting": "APP/PS1 mice [2]; [6]", "value": "32.41±1.88", "unit": "%"}, {"measurement": "minimum concentration needed to improve contextual fear memory", "setting": "APP/PS1 mice [2]; [3]", "value": 3, "unit": "mg/kg"}]}
{"smiles": "COc1ccc(CNc2c(CO)cnc3c(C4CC4)cc(C#N)cc23)cc1Cl", "note": "[YF012403, 4-(3-chloro-4-methoxybenzylamino)-8-cyclopropyl-3-(hydroxymethyl)-quinoline-6-carbonitrile]", "values": [{"measurement": "effect on spatial working memory (RAWM) in words", "setting": "APP/PS1 mice [1]; APP/PS1 (transgenic) mice", "value": "attenuated"}, {"measurement": "effect on contextual fear memory in words", "setting": "APP/PS1 mice [2]", "value": "attenuated"}]}
